The source of these data is publication PMC5522996, “Big conductance calcium‐activated potassium channel openers control spasticity without sedation” (British Journal of Pharmacology, 2017).

Data set [1] concerns spastic ABH mice with EAE. The experiment in a line: Spasticity: resistance to hindlimb flexion against a strain gauge.
The test system of data set [2] is ABH mice. The experiment in a line: Temperature testing (hypothermia). Type of data set: in vivo, mouse. The settings on record: for Temperature loss: 10 mg·kg^−1 i.v. The procedure: These recordings were assessed 20 min following administration of compounds. Results are expressed as mean ± SEM, and were analysed by Student's t‐test or a one‐way ANOVA with Bonferroni post hoc test using Sigma/StatV3/Sigmpaplot V9 or V11 software (Pryce et al., 2014).

The target of the next data set is T1, BKCa channel (Homo sapiens, UniProt Q12791+Q86W47).
T1 construct: host or cells: EA.hy926 endothelial cells
T1 sequence (Q12791 whole entry): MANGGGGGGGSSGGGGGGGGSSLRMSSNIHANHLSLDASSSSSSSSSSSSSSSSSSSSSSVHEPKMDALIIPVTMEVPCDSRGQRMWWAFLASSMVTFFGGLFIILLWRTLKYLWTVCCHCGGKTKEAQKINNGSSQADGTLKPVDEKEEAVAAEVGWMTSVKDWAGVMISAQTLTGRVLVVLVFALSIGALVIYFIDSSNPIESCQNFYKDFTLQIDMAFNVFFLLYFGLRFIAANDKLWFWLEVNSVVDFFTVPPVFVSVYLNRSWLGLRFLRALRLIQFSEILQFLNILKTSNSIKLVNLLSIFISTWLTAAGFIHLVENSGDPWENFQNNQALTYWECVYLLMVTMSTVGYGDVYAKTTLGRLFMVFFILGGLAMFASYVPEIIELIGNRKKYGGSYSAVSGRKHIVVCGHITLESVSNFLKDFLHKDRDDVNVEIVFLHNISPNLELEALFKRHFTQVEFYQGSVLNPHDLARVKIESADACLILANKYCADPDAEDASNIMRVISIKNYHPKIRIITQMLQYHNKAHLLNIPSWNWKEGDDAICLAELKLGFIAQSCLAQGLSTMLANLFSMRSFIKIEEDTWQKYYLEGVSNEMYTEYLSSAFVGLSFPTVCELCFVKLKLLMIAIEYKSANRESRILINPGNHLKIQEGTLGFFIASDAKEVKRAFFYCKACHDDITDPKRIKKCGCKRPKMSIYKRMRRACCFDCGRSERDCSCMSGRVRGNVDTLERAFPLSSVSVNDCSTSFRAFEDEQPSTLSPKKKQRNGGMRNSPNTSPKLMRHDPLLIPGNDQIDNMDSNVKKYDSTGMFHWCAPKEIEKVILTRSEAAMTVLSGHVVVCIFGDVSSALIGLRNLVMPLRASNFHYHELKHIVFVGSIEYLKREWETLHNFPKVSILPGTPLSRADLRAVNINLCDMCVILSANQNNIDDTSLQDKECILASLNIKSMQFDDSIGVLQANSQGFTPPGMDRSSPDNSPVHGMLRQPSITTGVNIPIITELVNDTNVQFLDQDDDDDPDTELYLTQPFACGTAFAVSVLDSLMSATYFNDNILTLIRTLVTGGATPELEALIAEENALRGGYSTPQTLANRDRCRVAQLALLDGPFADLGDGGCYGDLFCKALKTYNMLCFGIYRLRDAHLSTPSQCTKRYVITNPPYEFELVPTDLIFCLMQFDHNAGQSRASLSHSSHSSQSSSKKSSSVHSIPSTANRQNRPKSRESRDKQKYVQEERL
T1 sequence (Q86W47 whole entry): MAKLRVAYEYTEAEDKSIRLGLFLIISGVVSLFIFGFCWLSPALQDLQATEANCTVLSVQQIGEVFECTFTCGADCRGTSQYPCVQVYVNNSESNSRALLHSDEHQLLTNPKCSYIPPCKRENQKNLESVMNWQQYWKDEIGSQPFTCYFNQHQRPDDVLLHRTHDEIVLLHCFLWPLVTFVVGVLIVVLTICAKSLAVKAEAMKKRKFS
The experiment in a line: Single‐channel inside‐out patch clamp, EA.hy926 cells. The settings on record: 3 μM, inner surface of membrane, 40 mV, 0.3 μM free Ca^2+. Type of data set: cell-based. The procedure: The human EA.hy926 endothelial cells (ATCC, Manassas, USA) were grown in DMEM containing 10% FCS and 1% HAT (5 mM hypoxanthine, 20 μM aminopterin and 0.8 mM thymidine) and were maintained in an incubator at 37°C in 5% CO2 atmosphere (Bondarenko et al., 2013). Human HNC‐2 neuronal cells were obtained from ATCC. For experiments, cells were plated on glass coverslips. Single‐channel recordings were obtained from excised inside‐out membrane patches in symmetrical solutions using the patch‐clamp technique. All patch‐clamp experiments were performed at room temperature with the use of a water hydraulic micromanipulator (WR‐6, Narishige, Japan). […] The pipettes were filled with 140 mM KCl, 10 mM HEPES, 1 mM MgCl2, 5 mM EGTA and […] CaCl2 buffered to pH 7.2 by adding KOH. Cells were super‐perfused with a bath solution containing 140 mM NaCl, 5 mM KCl, 1.2 mM MgCl2, 10 mM HEPES, 10 mM glucose and 2.4 mM CaCl2. Following gigaseal formation, bath solution was switched to the following: 140 mM KCl, 10 mM HEPES, 1 mM MgCl2, 5 mM EGTA and a designated free Ca^2+ concentration, which was adjusted by adding different amounts of CaCl2 buffered to pH 7.2. (Bondarenko et al., 2011; Bondarenko et al., 2013). Single‐channel activity was expressed as NPo, where N represents the number of functional ion channels in the membrane patch and Po represents the open channel probability determined from idealized traces (Bondarenko et al., 2011). NPo was obtained from ≥20 s of continuous recording under each experimental condition. The effect of VSN16R was estimated after 3 min of continuous exposure to VSN16R‐containing solution. Data were analysed by ANOVA, and statistical significance was evaluated using Scheffés post hoc test of the Prism 5 software for Windows (GraphPad Software).

Another data set has as its system mouse vas deferens. The experiment in a line: Electrically‐evoked contraction of the mouse vas deferens. The format is cell-based. The settings on record: Mus musculus; read-out: EC50, inhibition of electrically‐evoked contraction. Here is the method: Vasa deferentia were obtained from outbred MF‐1 mice and mounted vertically in a 4 mL organ bath at an initial tension of 0.5 g. The baths contained Mg^2+‐free Krebs solution (NaCl 118.2 mM, KCl 4.75 mM, KH2PO4 1.19 mM, NaHCO3 25.0 mM, glucose 11.0 mM and CaCl2·6H2O 2.54 mM), which was kept at 35–36°C and bubbled with 95% O2 and 5% CO2. […] Contractions were monitored by a computer using a data recording and analysis system as described previously (Ross et al., 2001). After placement in an organ bath, each tissue was subjected to a stimulation‐free period of 10 min and then stimulated for 10 min. Tissues were then subjected to alternate periods of stimulation (5 min) and rest (10 min) until consistent twitch amplitudes were obtained. This equilibration procedure was followed by a stimulation‐free period of 25 min. Tissues were then stimulated for 5 min after which the first agonist addition was made and stimulation continued until the end of the experiment.

The nature of data set [3]: Plasma, brain and spinal cord levels in ABH mice with spastic EAE. Type of data set: in vivo, mouse. The settings on record: after 5 mg·kg^−1 p.o. VSN16R, ABH mice with spastic EAE. Here is the method: The stability of compounds when subjected to hepatic and plasma degradation was assessed in vitro by Inpharmatica, Cambridge, UK. Compounds (1 μM) were incubated with either pooled mouse liver microsomes (0.1 mg protein mL^−1) or pooled mouse plasma at 37°C for 0, 5, 10, 20 and 40 min before termination with acetonitrile containing warfarin as an analytical internal standard. Samples were centrifuged, and the resultant supernatant analysed for parent compound. The mass responses at baseline were taken as the 100% reference values against which the disappearance of the compound was measured. The natural log of the % remaining values was used to generate linear plots of disappearance of the compounds. Half‐life values were calculated from the slope of these plots. Hepatocyte metabolism was assessed by Cyprotex, Macclesfield, and 10 μM VSN16R was incubated with primary mouse, rat, monkey (Macaque) and human hepatocytes for 1 h, and the presence of metabolites was assessed using liquid […] mass spectroscopy. The stability of VSN16R was assessed in vivo by Inpharmatica, Cyprotex and Charles Rivers, Cambridge. Blood (plasma) samples were obtained prior to and 5 min to 24 h after drug administration of 2–5 mg·kg^−1 i.v. or 5 mg·kg^−1 p.o. VSN16R into outbred mice and rats (n = 3 per time point). In addition, plasma, brain and spinal cord samples were obtained from ABH with spastic EAE. Immediately after blood collection, the brain and spinal cord were removed and then stored at −20°C prior to assay. Tissue samples were weighed, homogenized and centrifuged, and the lysates generated. Brain lysates and plasma were assayed by LC–MS methods by Inpharmatica/Charles Rivers, Cambridge, UK. This was also performed using a Waters Xevo TQ or API4000, AB Sciex mass spectrometer using spiked samples as standards. PK Solutions Software (Summit Research Services, Montrose, CO, USA), AB Sciex Analyst software combined with Thermo Fisher Scientific Watson LIMS processing and reporting software or WinNonLin pharmacokinetic or PK solutions 2.0 software (Summit Research Services, Montrose CO, USA) were used to produce PK parameters. Data are expressed as mean ± SEM. The detection limit of VSN16R was 2 ng·mL^−1 in plasma and brain and 14 ng·mL^−1 in spinal cords. The detection limit of VSN22R was 2 ng·mL^−1 in plasma and 0.1 ng·mL^−1 for VSN44R in plasma. Pharmacokinetics in toxicological samples in rats (n = 6 per group), dogs (n = 6 per group) and humans (n = 6 per group) were performed by Charles Rivers (Edinburgh, UK).

The subject of a further data set is rat mesenteric artery. The experiment in a line: Methoxamine‐evoked contraction of rat mesenteric artery. The format is cell-based. To be noted: 50 nM blocker pretreatment. The procedure: Vessels were equilibrated and set to a basal tension of 2 to 2.5 mN. The integrity of the endothelium was assessed by pre‐contracting the vessel with 10 μM methoxamine (an α1‐adrenoceptor agonist), followed by relaxation with 10 μM carbachol (a muscarinic acetylcholine receptor agonist); vessels showing relaxations of greater than 90% were designated as endothelium‐intact. When the endothelium was not required, it was removed by rubbing the intima with a human hair; carbachol‐induced relaxation of less than 10% indicated successful removal. After the test for endothelial integrity, vessels were left for 30 min and then pre‐contracted with 10 μM methoxamine. This was followed by construction of a cumulative concentration–relaxation curve to VSN16R (10 nM–1 μM). […] Most experiments were performed in matched vessels; effects of blockers or endothelial removal were compared with the control responses obtained in separate vessels of the same rats. All relaxant responses are expressed as percentage relaxation of the tone induced by methoxamine. Values are given as mean ± SEM. Statistical comparisons of concentration‐dependent responses were made by two‐way ANOVA using Prism 4 (GraphPad Software, Inc, San Diego, CA, USA).

Data set [4] has as its system ABH mice. The experiment in a line: Open‐field activity monitoring (hypomotility). The format is in vivo, mouse. The procedure:
Motor activity was assessed using 27.9 × 27.9 cm open field activity monitor chambers and computer software (Med Associates Inc, St. Albans, VT, USA.). This was typically performed in a darkened room. Recordings were initiated once the mouse entered the chamber and continued for 5 min. These chambers, allowing four simultaneous recordings of individual mice and were fitted with infrared beams that could detect movement in the X, Y planes. The total distance travelled (cm) was recorded. Results are expressed as mean ± SEM. These were analysed by Student's paired t‐test or a one‐way ANOVA with Bonferroni post hoc test, using SigmaStat V3/Sigmaplot V9 or V11 software (Systat Ltd Hounslow, UK. Al‐Izki et al., 2012).

The mark [5] stands for this setting: i.p., 40 mg·kg^−1 BMS‐204352, 20 mg·kg^−1 NS‐1619, 10 mg·kg^−1 NS‐11021.

`FC(F)(F)c1cc(NC(=S)Nc2ccc(Br)cc2-c2nn[nH]n2)cc(C(F)(F)F)c1` [NS‐11021, reference compound]: in data set [1] (setting [5]), the Inhibition of spasticity result is listed as “significantly inhibit spasticity” and the Sedation result is recorded as “without causing sedation”.

Turning to `O=c1[nH]c2cc(C(F)(F)F)ccc2n1-c1cc(C(F)(F)F)ccc1O` [NS‐1619, reference compound], in data set [1] (setting [5]), the Inhibition of spasticity result is “significantly inhibit spasticity” and the Sedation result is reported as “without causing sedation”.

`CCCCCCC(C)(C)c1cc(O)c2c(c1)OC(C)(C)[C@@H]1CC=C(C(=O)O)C[C@@H]21` [CT3, 1′, 1′‐dimethylheptyl‐M8‐tetrahydrocannabinol‐11‐oic acid]: the Temperature loss is 2.3 ± 0.4 °C in the data set with ABH mice [2] (20 min, spastic animals) and 0.0 ± 0.1 °C in the data set on ABH mice [2] (healthy mice).

Take `CC(C)(O)[C@H]1O[C@H]2CC[C@@]3(C)[C@@](O)(CC[C@H]4Cc5c([nH]c6ccccc56)[C@@]43C)C2=CC1=O` [paxilline, reference compound]: in data set [1] (1 mg·kg^−1 i.p.), the “Effect on baseline level of spasticity” value is “did not influence the baseline level of spasticity”. The “Effect of pretreatment on the action of VSN16R” value in data set [1] (1 mg·kg^−1 i.p. before 5 mg·kg^−1 p.o. VSN16R) is reported as “completely inhibit the action of VSN16R”.

Regarding `C[C@@H](NC(=O)c1cccc(/C=C\CCCC(=O)N(C)C)c1)C(=O)O` [VSN44R, (Z)‐(3‐(6‐(dimethylamino)‐6‐oxohex‐1‐en‐1‐yl)benzoyl)‐D‐alanine], the “Single BKCa channel activity” value on BKCa channel is “facilitated single BKCa channel activity”. Moreover, the EC50 in the data set on mouse vas deferens is 1 nM. In data set [3], the “Plasma level of the named species” value worked out at 2.1 ± 0.3 ng/mL. The Inhibition of spasticity entry in data set [1] (5 mg·kg^−1 i.v.) was “could inhibit the spasticity”.

For `N#Cc1cc2[nH]c(=O)c(=O)[nH]c2cc1[N+](=O)[O-]` [CNQX, reference compound], the “Inhibitory response on repeated dosing” value in data set [1] (repeated 25 mg·kg^−1 s.c.) is given as “inhibitory responses that diminished over time”.

Take charybdotoxin: in the data set with rat mesenteric artery, the “Effect of the blocker on VSN16R vasorelaxation” value is on record as “significantly inhibited”.

Take `COc1ccc(Cl)cc1[C@]1(F)C(=O)Nc2cc(C(F)(F)F)ccc21` [BMS‐204352, reference compound]: in data set [1] (setting [5]), the Inhibition of spasticity result is “significantly inhibit spasticity” and the Sedation result was “without causing sedation”.

Consider “Apamin: KCa2.2/2.3 (KCNN2/KCNN3) channel antagonist (CNCKAPETALCARRCQQHG)”, for which the “Effect of the blocker on VSN16R vasorelaxation” value in the data set with rat mesenteric artery is on record as “small inhibitory effect”.

`NCC(CC(=O)O)c1ccc(Cl)cc1` (stereo not shown) [baclofen, reference compound]: the Inhibition of spasticity entry in data set [1] (5 mg·kg^−1 i.v.) is “comparable inhibition of spasticity”. Besides, in data set [1] (repeated 5 mg·kg^−1 p.o.), the “Inhibitory response on repeated dosing” value is listed as “inhibitory responses that diminished over time”. For the same molecule, the “Sedation (hypomotility, hypothermia)” value in the data set on ABH mice [4] (5 mg·kg^−1 i.v.) was “significant sedation”.

Consider `Cc1c(C(=O)c2cccc3ccccc23)c2cccc3c2n1[C@H](CN1CCOCC1)CO3` [R(+)WIN55‐212], for which the Hypothermia result with ABH mice [2] (1 mg·kg^−1 i.v., 20 min after administration) is on record as “significant sedative effects”. Further, the “Hypomotility in open field” value in the data set with ABH mice [4] (1 mg·kg^−1 i.v., 30 min after administration) is “significant sedative effects”.
